Assay results taken from patent US20100068150A1, “Selective Caspase Inhibitors” (The Board of Trustees of the Leland Stanford Junior …, priority 2006, published 2010).

Columns and labels:
[1] = tested on: endogenous caspases in 293 cytosolic extracts; experiment: Direct labeling of endogenous caspases in apoptotic 293 cytosolic extracts; type: binding; conditions: 10 min after cytochrome c/dATP; bAB06 and bAB13 at 10 nM to 10 μM
Description: (a.) Hypotonic 293 cytosolic extracts were induced to undergo intrinsic apoptosis by addition of cytochrome c/dATP. KMB01, bAB06 and bAB13 were added 10 minutes after activation and labeling of caspase active sites was carried out for three minutes. Samples were analyzed by SDS-PAGE followed by biotin blotting using streptavidin-HRP. (b) The identity of individual caspases was confirmed via immunoprecipitation using specific anti-sera for caspases-3, 7 and 9 (also see FIG. 5B for immunoprecipitation of caspases-3 and 7 after KMB01 labeling). Extracts (293) were activated with cytochrome c/dATP for 10 minutes, labeled by addition of indicated probes (100 nM final concentration for bAB06 and bAB13 and 10 μM final concentration for KMB01) and labeled caspases precipitated using specific anti-sera as described in the Methods section. […] Labeling of caspases was monitored by SDS-PAGE followed by biotin blotting with streptavidin-HRP. […]
Selective labeling of endogenous caspases in cell extracts and live cells with active site probes was carried out as follows: Hypotonic 293 cytosolic extracts were induced to undergo intrinsic apoptosis by addition of cytochrome c/dATP. […] Samples were analyzed by SDS-PAGE followed by biotin blotting using streptavidin-HRP. […] Labeling of caspases was monitored by SDS-PAGE followed by biotin blotting with streptavidin-HRP. […]

[2] = tested on: mature downstream caspases (17-22 kDa) in 293 extracts; experiment: Intrinsic apoptosis assay in 293 extracts with AB06, KMB01 labeling of mature downstream caspases; type: biochemical; conditions: AB06 added at the same time as cytochrome c/dATP
Text: FIGS. 6 A-E illustrate that full-length active caspase-7 has unique inhibitor specificity and is processed to mature forms by downstream executioner caspases. (A) The caspase-3 specific inhibitor causes accumulation of a catalytically active full-length form of caspase-7. Cytosolic extracts from 293 cells were activated with cytochrome c/dATP for the indicated times followed by labeling with KMB01 (left panel) and western blotting with a caspase-7 specific antibody (right panel) as in FIG. 5A. […] (B) The exact same experiment as (A) except extracts from MCF-7 cells were used in place of 293 extracts. (**) indicates forms of caspase-7 that are likely a result of the alternative transcription start site at methionine-45 (C) Quantification of the relative activity of FL-C7 in uninhibited 293 extracts (from FIG. 5A), AB06 treated 293 extracts (from (A)) and uninhibited MCF-7 extracts (from (B)) (D) Inhibitor specificity of full-length and processed forms of caspase-7. Extracts (293) were activated for 5 min with cytochrome c/dATP and then incubated with NP-capped AOMK inhibitors containing the indicated primary amino acid sequences for 5 minutes before KMB01 was added and allowed to label residual caspase active sites for 30 minutes. Samples were analyzed by SDS-PAGE followed by biotin blotting using strepavidin-HRP (left panel) or western blotting for caspase-7 (right panel). […]

Molecule	labeling of endogenous caspases in activated 293 extracts [1]	KMB01 labeling of mature downstream caspases [2]
Bio-EVD-AOMK [KMB01, reference compound]	labeled a 35 kDa caspase-9 species and the two primary mature forms of caspase3 at 17 and 20 kDa as well the 33 kDa full length N-peptide processed and 20 kDa mature forms of caspase-7	–
Cc1cccc(C)c1C(=O)OCC(=O)[C@H](CC(=O)O)NC(=O)[C@@H](NC(=O)[C@H](Cc1ccncc1)NC(=O)[C@H](CC(=O)O)NC(=O)Cc1ccc(O)c([N+](=O)[O-])c1)C(C)C [AB06, Np-D-3-V-D-DMBA]	–	completely blocked
